Experimental data as given in paper PMC6851342 (The Journal of Biological Chemistry, 2019).

Target: T1, WT EhV1 (A3B3DF complex, V1-ATPase from Enterococcus hirae) (Enterococcus hirae, UniProt Q08636+Q08637)
T1 construct: gene ntpA
Assay: single-molecule rotation, ADP-dependent backward steps and pause durations
Assay type: biochemical
Conditions: ATPγS-driven rotation; 10-100 μM ATPγS, 1-300 μM ADP, no ADP-quenching system, pH 6.5

Structure (SMILES): Nc1ncnc2c1ncn2[C@@H]1O[C@H](COP(=O)(O)OP(=O)(O)O)[C@@H](O)[C@H]1O [ADP]
- single-molecule rotation, ADP-dependent backward steps and pause durations: the addition of ADP causes frequent backward steps during the rotation
